From ChEMBL document CHEMBL2073842, “Characterization of the efflux transport of 17beta-estradiol-D-17beta-glucuronide from the brain across the blood-brain barrier” (J Pharmacol Exp Ther, 2001)

What was measured:
[1] = biological target: T1, Organic anion transporter 3 (Rattus norvegicus, UniProt Q9R1U7); experiment: TP_TRANSPORTER: inhibition of E217betaG uptake in Oat3-expressing LLC-PK1 cells; format: functional, cell-based
T1 sequence (Q9R1U7 whole entry): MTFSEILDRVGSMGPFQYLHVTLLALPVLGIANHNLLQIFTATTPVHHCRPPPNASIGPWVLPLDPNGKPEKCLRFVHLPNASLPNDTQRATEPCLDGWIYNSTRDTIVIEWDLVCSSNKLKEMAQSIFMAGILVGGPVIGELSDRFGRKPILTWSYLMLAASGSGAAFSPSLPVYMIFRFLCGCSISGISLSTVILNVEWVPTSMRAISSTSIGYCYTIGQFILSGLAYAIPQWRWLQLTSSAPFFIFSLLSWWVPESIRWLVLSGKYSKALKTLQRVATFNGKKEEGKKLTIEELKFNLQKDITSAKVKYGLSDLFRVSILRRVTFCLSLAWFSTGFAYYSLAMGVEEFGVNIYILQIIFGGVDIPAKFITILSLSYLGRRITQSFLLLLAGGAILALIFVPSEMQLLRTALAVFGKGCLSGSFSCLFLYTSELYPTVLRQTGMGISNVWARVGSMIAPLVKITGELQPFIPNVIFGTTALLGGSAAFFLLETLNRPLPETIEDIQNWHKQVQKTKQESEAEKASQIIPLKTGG

[2] = biological target: T2, Solute carrier organic anion transporter family member 1A4 (Rattus norvegicus, UniProt O35913); experiment: TP_TRANSPORTER: inhibition of E217betaG uptake in Oatp2-expressing LLC-PK1 cells; format: functional, cell-based
T2 sequence (O35913 whole entry): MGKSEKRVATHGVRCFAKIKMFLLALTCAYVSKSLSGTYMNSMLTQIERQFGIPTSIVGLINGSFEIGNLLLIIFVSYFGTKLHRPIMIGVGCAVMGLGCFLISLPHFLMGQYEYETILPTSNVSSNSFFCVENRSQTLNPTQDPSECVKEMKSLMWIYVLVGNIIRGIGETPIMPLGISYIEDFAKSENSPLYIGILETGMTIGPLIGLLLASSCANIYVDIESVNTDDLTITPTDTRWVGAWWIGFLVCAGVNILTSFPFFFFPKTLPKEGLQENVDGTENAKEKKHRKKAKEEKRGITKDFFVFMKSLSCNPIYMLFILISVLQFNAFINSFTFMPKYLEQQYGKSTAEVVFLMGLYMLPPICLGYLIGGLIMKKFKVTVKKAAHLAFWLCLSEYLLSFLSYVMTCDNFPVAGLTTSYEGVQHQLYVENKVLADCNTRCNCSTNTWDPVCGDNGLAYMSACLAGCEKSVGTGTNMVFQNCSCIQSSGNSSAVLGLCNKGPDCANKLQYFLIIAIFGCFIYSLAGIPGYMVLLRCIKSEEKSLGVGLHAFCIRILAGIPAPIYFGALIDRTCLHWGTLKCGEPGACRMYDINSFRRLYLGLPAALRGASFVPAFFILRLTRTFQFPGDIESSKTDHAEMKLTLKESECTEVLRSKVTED

[3] = biological target: T3, Solute carrier organic anion transporter family member 1A1 (Rattus norvegicus, UniProt P46720); experiment: TP_TRANSPORTER: inhibition of E217betaG uptake in Oatp1-expressing LLC-PK1 cells; format: functional, cell-based
T3 sequence (P46720 whole entry): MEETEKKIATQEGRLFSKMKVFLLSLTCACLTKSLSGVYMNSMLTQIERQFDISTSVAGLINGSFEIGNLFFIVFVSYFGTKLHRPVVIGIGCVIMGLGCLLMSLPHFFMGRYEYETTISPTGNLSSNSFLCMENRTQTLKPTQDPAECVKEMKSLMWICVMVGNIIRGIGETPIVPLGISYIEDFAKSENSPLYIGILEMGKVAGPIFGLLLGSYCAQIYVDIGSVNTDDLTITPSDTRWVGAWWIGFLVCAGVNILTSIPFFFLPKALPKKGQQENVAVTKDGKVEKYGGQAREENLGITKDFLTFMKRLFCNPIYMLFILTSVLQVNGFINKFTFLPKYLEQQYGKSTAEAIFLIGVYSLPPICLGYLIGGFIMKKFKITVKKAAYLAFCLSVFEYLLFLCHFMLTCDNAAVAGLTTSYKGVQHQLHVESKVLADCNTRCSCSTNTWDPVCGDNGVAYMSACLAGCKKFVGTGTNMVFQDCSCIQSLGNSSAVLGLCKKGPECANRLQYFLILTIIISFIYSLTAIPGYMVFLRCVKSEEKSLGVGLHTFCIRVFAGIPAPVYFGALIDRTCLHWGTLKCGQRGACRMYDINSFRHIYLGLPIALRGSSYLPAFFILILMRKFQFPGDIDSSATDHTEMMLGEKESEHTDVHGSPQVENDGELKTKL

[4] = substrate: Nc1ccc(C(=O)NCC(=O)O)cc1; experiment: cells, lysate or membranes named
[5] = substrate: C[C@]12CC[C@@H]3c4ccc(O)cc4CC[C@H]3[C@@H]1CC[C@@H]2O[C@@H]1O[C@H](C(=O)O)[C@@H](O)[C@H](O)[C@H]1O; experiment: TP_TRANSPORTER: uptake in Oatp2-expressing LLC-PK1 cells; format: functional, cell-based
[6] = substrate: C[C@]12CC[C@@H]3c4ccc(O)cc4CC[C@H]3[C@@H]1CC[C@@H]2O[C@@H]1O[C@H](C(=O)O)[C@@H](O)[C@H](O)[C@H]1O; experiment: TP_TRANSPORTER: uptake in Oatp1-expressing LLC-PK1 cells; format: functional, cell-based

Nc1ccc(C(=O)NCC(=O)O)cc1 [AMINOHIPPURIC ACID]
Ki [1]: 301 µM

CCCN(CCC)S(=O)(=O)c1ccc(C(=O)O)cc1 [PROBENECID]
Ki [2]: 72.9 µM | Ki [3]: 74.4 µM | Ki [1]: 20 µM

B1: Solute carrier family 22 member 6 (Rattus norvegicus) (protein)
chain: MAFNDLLKQVGGVGRFQLIQVTMVVAPLLLMASHNTLQNFTAAIPPHHCRPPANANLSKDGGLEAWLPLDKQGQPESCLRFTSPQWGPPFYNGTEANGTRVTEPCIDGWVYDNSTFPSTIVTEWNLVCSHRAFRQLAQSLYMVGVLLGAMVFGYLADRLGRRKVLILNYLQTAVSGTCAAYAPNYTVYCVFRLLSGMSLASIAINCMTLNVEWMPIHTRAYVGTLIGYVYSLGQFLLAGIAYAVPHWRHLQLVVSVPFFIAFIYSWFFIESARWYSSSGRLDLTLRALQRVARINGKQEEGAKLSIEVLRTSLQKELTLSKGQASAMELLRCPTLRHLFLCLSMLWFATSFAYYGLVMDLQGFGVSMYLIQVIFGAVDLPAKFVCFLVINSMGRRPAQMASLLLAGICILVNGIIPKSHTIIRTSLAVLGKGCLASSFNCIFLYTGELYPTVIRQTGLGMGSTMARVGSIVSPLVSMTAEFYPSMPLFIFGAVPVVASAVTALLPETLGQPLPDTVQDLKSRSRGKQNQQQQEQQKQMMPLQASTQEKNGL
Km [4]: 85.1 µM

B2: Solute carrier organic anion transporter family member 1A4 (Rattus norvegicus) (protein)
chain: T2 sequence (O35913 whole entry)
Km [5]: 17 µM

B3: Solute carrier organic anion transporter family member 1A1 (Rattus norvegicus) (protein)
chain: T3 sequence (P46720 whole entry)
Km [6]: 2.58 µM
